Consider one compound from publication PMC2756456 (Clinical cancer research : an official journal of the …, 2009).

The IC50 is the concentration needed to halve the response being measured. Low values mean higher potency, high ones lower potency.

The assay addresses myosin light chain kinase (MLCK) (Homo sapiens, UniProt Q15746). The assay is described as follows: radiometric [γ-33P]ATP kinase assay with peptide substrate KKLNRTLSFAEPG
The format is biochemical.

Chain of myosin light chain kinase (MLCK) (Q15746 whole entry): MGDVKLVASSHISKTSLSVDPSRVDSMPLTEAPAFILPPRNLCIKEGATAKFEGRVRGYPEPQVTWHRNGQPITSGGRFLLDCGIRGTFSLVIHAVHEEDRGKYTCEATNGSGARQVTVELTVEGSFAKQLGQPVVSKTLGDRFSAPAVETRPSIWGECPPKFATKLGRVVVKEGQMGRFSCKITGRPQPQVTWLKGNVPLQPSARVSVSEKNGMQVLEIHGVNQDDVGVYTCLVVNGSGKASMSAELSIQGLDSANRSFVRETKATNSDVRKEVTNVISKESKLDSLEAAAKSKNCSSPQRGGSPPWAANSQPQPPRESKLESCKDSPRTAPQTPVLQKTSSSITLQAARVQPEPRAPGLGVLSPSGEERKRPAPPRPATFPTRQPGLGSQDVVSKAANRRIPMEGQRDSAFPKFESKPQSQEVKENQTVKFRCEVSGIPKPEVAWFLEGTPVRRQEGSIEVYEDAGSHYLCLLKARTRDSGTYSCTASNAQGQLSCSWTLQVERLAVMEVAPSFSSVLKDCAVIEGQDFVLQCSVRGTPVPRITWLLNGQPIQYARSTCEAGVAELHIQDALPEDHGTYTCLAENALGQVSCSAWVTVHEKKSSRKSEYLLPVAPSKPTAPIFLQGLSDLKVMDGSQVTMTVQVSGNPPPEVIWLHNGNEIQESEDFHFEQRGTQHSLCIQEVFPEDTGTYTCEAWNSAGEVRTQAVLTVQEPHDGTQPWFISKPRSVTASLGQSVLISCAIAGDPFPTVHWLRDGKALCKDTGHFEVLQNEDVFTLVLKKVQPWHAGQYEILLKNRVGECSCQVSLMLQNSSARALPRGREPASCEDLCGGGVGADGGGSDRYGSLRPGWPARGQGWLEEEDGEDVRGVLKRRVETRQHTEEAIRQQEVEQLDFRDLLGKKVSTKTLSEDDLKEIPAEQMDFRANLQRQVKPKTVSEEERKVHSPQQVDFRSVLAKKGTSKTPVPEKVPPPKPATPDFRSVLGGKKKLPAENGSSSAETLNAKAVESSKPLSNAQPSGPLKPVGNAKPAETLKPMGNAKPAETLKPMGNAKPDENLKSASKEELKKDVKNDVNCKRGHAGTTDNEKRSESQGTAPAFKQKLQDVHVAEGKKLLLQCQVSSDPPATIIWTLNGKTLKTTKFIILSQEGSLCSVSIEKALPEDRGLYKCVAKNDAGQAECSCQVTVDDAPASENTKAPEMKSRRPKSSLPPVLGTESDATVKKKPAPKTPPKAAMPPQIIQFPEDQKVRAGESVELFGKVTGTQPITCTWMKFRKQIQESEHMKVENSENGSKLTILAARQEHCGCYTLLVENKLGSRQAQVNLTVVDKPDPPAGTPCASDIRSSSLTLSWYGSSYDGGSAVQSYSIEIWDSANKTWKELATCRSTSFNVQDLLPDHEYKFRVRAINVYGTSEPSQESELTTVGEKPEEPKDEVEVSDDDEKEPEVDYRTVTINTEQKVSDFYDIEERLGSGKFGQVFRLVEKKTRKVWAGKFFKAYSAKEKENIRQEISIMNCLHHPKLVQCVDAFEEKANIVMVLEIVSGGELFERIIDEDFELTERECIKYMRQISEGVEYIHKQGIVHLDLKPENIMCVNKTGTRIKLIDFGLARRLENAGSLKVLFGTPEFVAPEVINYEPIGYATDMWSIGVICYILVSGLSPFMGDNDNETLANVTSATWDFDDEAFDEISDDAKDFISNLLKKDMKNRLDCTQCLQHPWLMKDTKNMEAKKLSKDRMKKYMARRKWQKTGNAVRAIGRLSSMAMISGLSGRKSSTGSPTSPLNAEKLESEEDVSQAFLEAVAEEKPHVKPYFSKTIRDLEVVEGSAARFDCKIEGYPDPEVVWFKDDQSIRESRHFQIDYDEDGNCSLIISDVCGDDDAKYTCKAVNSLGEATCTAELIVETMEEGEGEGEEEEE

Compound `CNCc1ccc(-c2[nH]c3cc(F)cc4c3c2CCNC4=O)cc1` [AG014699] showed an IC50 of 55 µM.
